# Assay results reported in patent US7816558B2, “Triarylcarboxylic acid derivative” (Astellas Pharma Inc., priority 2005, dated 2010).
# System: serum uric acid level
# Experiment: Hypouricemic effect (rat oxonate-induced high uric acid model), test (A)
# Format: in vivo
# Conditions: Wistar rats, potassium oxonate 250 mg/kg s.c., 2 hours after oral administration, normal group 100% inhibition, control group 0%
# Procedure: (A) For evaluating the serum uric acid level depressing capability of the compounds of the present invention, the following test was carried out using an oxonate-induced high uric acid model.
# A 0.5% methyl cellulose liquid (normal group, control group) or a test compound suspended in 0.5% methyl cellulose (compound-administered group) was orally administered to 5 or 6-week-age male Wistar rats. One hour before blood collection, saline (normal group), or 250 mg/kg of potassium oxonate suspended in saline (control group, compound-administered group) was subcutaneously administered to the rats. 2 hours or 18 hours after the compound or methyl cellulose liquid administration, the blood was collected from each rat. The serum was separated from the collected blood, and the serum uric acid level was measured according to a phosphorus tungstate method (Am. J. Clin. Pathol., 28, 152-, 1957).
# This test confirmed the excellent hypouricemic effect of the compounds of the present invention. For example, ED50 of the compound of Example 136 was 0.2 mg/kg in 2 hours after oral administration (for this, the serum uric acid level of the normal group was defined as 100% inhibition and the serum uric acid level of the control group was as 0% inhibition).
row,SMILES,ED50
1,"N#Cc1cc(-c2cc(C(=O)[O-])ccn2)ccc1-c1ccccc1.[Na+] [Example 1, sodium 2-(2-cyanobiphenyl-4-yl)isonicotinate]",< 1 mg/kg
2,"N#Cc1cc(-n2cc(C(=O)O)cn2)ccc1-c1ccccc1 [Example 137, 1-(2-cyanobiphenyl-4-yl)-1H-pyrazole-4-carboxylic acid]",< 1 mg/kg
3,"Cn1nc(-c2ccc(-c3ccccc3)c(C#N)c2)cc1C(=O)O [Example 146, 3-(2-cyanobiphenyl-4-yl)-1-methyl-1H-pyrazole-5-carboxylic acid]",< 1 mg/kg
4,"Cc1nc(-c2ccc(-c3ccccc3)c(C#N)c2)sc1C(=O)O [Example 123, 2-(2-cyanobiphenyl-4-yl)-4-methyl-1,3-thiazole-5-carboxylic acid]",< 1 mg/kg
5,"COc1ccc(-c2ccc(-c3nc(C)c(C(=O)O)s3)cc2C#N)cc1 [Example 127, 2-(2-cyano-4′-methoxybiphenyl-4-yl)-4-methyl-1,3-thiazole-5-carboxylic acid]",< 1 mg/kg
6,"COc1ccc(-c2ccc(-n3cc(C(=O)O)cn3)cc2C#N)cc1 [Example 140, 1-(2-cyano-4′-methoxybiphenyl-4-yl)-1H-pyrazole-4-carboxylic acid]",< 1 mg/kg
7,"N#Cc1cc(-c2ncc(C(=O)O)s2)ccc1-c1ccccc1 [Example 136, 2-(2-cyanobiphenyl-4-yl)-1,3-thiazole-5-carboxylic acid]",0.2 mg/kg
8,"Cc1ccc(-c2ccc(-c3nc(C)c(C(=O)O)s3)cc2C#N)cc1 [Example 124, 2-(2-cyano-4′-methylbiphenyl-4-yl)-4-methyl-1,3-thiazole-5-carboxylic acid]",< 1 mg/kg
9,"N#Cc1cc(-c2ccc(C(=O)O)s2)ccc1-c1ccccc1 [Example 68, 5-(2-cyanobiphenyl-4-yl)thiophene-2-carboxylic acid]",< 1 mg/kg

# Biological target: T1, xanthine oxidase (derived from butter milk, by Sigma) (Bos taurus, UniProt P80457)
# T1 construct: xanthine oxidase (derived from butter milk, by Sigma); purchased Sigma; host or cells: butter milk (natural source)
# Experiment: Xanthine oxidase inhibiting activity
# Format: biochemical
# Conditions: pterin 5 μM as substrate, isoxanthopterin light emission, room temperature; read-out: IC50 (concentration of the test compound for 50% inhibition)
# Procedure: A test compound was dissolved in DMSO (by Nacalai) to have a concentration of 10 mM, and then just before use, its concentration was adjusted to a desired one.
# The xanthine oxidase inhibitory activity of the compound of the present invention was evaluated according to a partly modified method of a method described in a reference “Free Radic. Biol. Med. 6, 607-615, 1992”. Concretely, xanthine oxidase (derived from butter milk, by Sigma) was mixed with 50 mM phosphate buffer to be 0.03 units/ml, and applied to a 96-well plate in an amount of […]. The test compound diluted to have a final concentration was added to the plate in an amount of 2 μl/well, and processed at room temperature for 20 minutes. Pterin (by Sigma) was added to it to have a final concentration of 5 μM in an amount of 50 μl/well, and reacted at room temperature for 10 minutes. Under a condition of excitation at 345 nm and emission at […] (pterin is oxidized by xanthine oxidase to give isoxanthopterin, and under the condition it emits light), the sample was analyzed using a microplate reader sapphire (by Tacan).
# The light emission by isoxanthopterin in the presence or absence of xanthine oxidase was defined as 0% inhibition and 100% inhibition, respectively, and the concentration (IC50) of the test compound for 50% inhibition was computed.
# T1 sequence (P80457 whole entry): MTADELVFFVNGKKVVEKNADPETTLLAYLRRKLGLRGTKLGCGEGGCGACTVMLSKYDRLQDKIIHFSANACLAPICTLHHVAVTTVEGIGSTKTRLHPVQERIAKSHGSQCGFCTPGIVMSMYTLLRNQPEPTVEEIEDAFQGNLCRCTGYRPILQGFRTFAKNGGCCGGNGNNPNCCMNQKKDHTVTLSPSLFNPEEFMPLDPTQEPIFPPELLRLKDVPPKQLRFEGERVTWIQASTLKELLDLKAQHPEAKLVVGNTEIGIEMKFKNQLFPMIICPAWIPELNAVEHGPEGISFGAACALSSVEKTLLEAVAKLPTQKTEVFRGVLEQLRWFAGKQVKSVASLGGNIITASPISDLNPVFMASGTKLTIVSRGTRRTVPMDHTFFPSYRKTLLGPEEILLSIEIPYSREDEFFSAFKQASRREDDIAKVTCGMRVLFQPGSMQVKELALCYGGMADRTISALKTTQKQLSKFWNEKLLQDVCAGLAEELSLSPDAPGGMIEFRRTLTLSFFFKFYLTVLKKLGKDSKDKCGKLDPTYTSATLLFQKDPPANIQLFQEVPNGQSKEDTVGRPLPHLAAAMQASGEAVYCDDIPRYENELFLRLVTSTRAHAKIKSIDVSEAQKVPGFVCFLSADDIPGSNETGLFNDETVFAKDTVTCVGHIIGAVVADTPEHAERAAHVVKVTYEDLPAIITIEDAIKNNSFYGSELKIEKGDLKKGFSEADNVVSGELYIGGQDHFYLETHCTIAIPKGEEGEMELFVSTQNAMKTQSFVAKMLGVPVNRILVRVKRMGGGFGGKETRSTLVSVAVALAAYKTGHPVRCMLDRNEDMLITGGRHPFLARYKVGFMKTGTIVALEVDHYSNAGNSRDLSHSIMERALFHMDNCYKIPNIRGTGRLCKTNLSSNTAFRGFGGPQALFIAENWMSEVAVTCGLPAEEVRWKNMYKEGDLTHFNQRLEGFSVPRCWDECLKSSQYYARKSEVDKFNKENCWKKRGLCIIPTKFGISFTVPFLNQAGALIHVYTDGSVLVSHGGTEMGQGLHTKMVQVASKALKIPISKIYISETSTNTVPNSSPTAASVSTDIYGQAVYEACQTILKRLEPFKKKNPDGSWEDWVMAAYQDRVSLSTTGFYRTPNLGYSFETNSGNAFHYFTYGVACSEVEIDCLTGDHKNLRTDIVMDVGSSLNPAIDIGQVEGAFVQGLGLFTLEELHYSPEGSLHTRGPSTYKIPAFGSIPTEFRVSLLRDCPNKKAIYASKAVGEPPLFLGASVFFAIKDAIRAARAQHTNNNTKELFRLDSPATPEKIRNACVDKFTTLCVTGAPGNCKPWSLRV
row,SMILES,IC50
1,"Cc1cccc(-c2ccc(-c3nc(C)c(C(=O)O)s3)cc2C#N)c1 [Example 129, 2-(2-cyano-3′-methylbiphenyl-4-yl)-4-methyl-1,3-thiazole-5-carboxylic acid]",0.9 nM
2,"COc1ccc(-c2ccc(-n3cc(C(=O)O)cn3)cc2C#N)cc1 [Example 140, 1-(2-cyano-4′-methoxybiphenyl-4-yl)-1H-pyrazole-4-carboxylic acid]",1.4 nM
3,CC(C)(C)c1ccc(-c2ccc(-c3ccc(C(=O)O)s3)cc2C#N)cc1 [Example 94],0.5 nM
